Reference: patent publication US7811352B2, “Fertilizer compositions and methods of using” (priority 2005, dated 2010)
Marks after values point to notes of the source that are not given here.

Experiments:
Assay type in all cases: in vivo
[1] = test system: rhizomatous tall fescue grass; assay: Phytotoxicity (% burn), rhizomatous tall fescue (Example 14)
Method: (§1) In this Example, the effect of a fertilizer comprising lysine on turfgrass growth was examined. The effects of lysine (HCl) and LIQUID LYSINE on a common type of lawn quality turfgrass (rhizomatous tall fescue) were compared with those of CoRoN® brand fertilizer.
(§2) Six fertilizer treatments comprising two concentrations of each fertilizer composition (Coron® (N—P—K, 14-2-34), LIQUID LYSINE (N—P—K, 10-2-1), and lysine (HCl) (N—P—K, 15-2-1)) were prepared and applied to 3 replications of rhizomatous tall fescue grass. The solutions of lysine (HCl) (dissolved in 0.5 gal water), LIQUID LYSINE and Coran were applied using a Birchmeier backpack sprayer with a 5 foot spray pattern, Each fertilizer treatment was applied in either a 3-split application with an application rate of 2 lb N/1000 ft^2 or a 6-split application with an application rate of 1 lb N/1000 ft^2. Plot size was 9 ft×9 ft set up as a randomized complete block. Irrigation was applied following application. Plots were rated for turfgrass quality and color (scale of 1-10 where 10=dark green turf, 1 =dead/brown turf, and 6=minimally acceptable turf and phytotoxicity (% burn) throughout the study period and compared with two untreated plots. Quality, color, and phytotoxicity were measured on day 7, day 14, day 21, day 28, day 35, and day 42 after application. All data was subject to statistical analysis and significant means were determined. Average turfgrass quality ratings for the treatments are presented in Table 21. Average turfgrass color ratings are presented in Table 22. Average phytotoxicity ratings (as % burn) are presented in Table 23.

[2] = test system: rhizomatous tall fescue grass; assay: Turfgrass quality and color ratings, rhizomatous tall fescue (Example 14); settings: scale of 1-10
Method: as §1, §2

[3] = test system: lawn height, Kentucky bluegrass; assay: Injury rating of lawn height Kentucky bluegrass after fertilization (Example 5); settings: about two weeks after application
Method: In this Example, the efficacy of fertilizers on lawn height, Kentucky bluegrass was examined. Fertilizer compositions according to several embodiments of the present disclosure were prepared and compared to the commercial fertilizer products, urea 46-0-0 (granular) fertilizer, Lebanon fertilizer 21-0-12 (granular, commercially available from Lebanon Seaboard Corporation, Lebanon, Pa.) and Milorganite 6-2-0 (granular, commercially available from Milorganite, Milwaukee, Wis.). The fertilizer compositions were applied to the turf grass prior to winter dormancy at a rate equivalent to supplying about 1.0 pounds of nitrogen (N) per 1000 square feet. Each of the fertilizer compositions were applied at substantially equal rates of lbs of nitrogen (N) per 1000 square feet. Table 2 illustrates the response of lawn height, Kentucky bluegrass to fertilization using various exemplary fertilizers of the present invention, taken about two weeks after application of the fertilizer. The letters in the Color and Injury columns correspond to Duncan's Multiple Range Test.

[4] = test system: green height, creeping bentgrass; assay: Injury rating of green height creeping bentgrass after fertilization (Example 4); settings: about two weeks after application
Method: In this Example, the efficacy of fertilizers on green height, creeping bentgrass was examined. Fertilizer compositions according to several embodiments of the present disclosure were prepared and compared to the commercial fertilizer products, urea 46-0-0 (granular) fertilizer, Lebanon fertilizer 21-0-12 (granular, commercially available from Lebanon Seaboard Corporation, Lebanon, Pa.) and Milorganite 6-2-0 (granular, commercially available from Milorganite, Milwaukee, Wis.). The fertilizer compositions were applied to the turf grass prior to winter dormancy of the turf at a rate equivalent to supplying about 1.0 pounds of nitrogen (N) per 1000 square feet. Each of the fertilizer compositions were applied at substantially equal rates of pounds (lbs) of nitrogen (N) per 1000 square feet. Table 1 illustrates the response of green height (i.e., the height of grass on golf course green), creeping bentgrass to fertilization using various exemplary fertilizers of the present invention, taken about two weeks after application of the fertilizer. The letters in the Color and Injury columns correspond to Duncan's Multiple Range Test. Numbers (means) in a column followed by the same letter are not statistically different at P=0.05.

[5] = test system: fairway height, creeping bentgrass; assay: Injury rating of fairway height creeping bentgrass after fertilization (Example 6); settings: about two weeks after application
Method: (§3) In this Example, the efficacy of fertilizers on fairway height, creeping bentgrass was examined. Fertilizer compositions according to several embodiments of the present disclosure were prepared and compared to the commercial fertilizer products, urea 46-0-0 (granular) fertilizer, Lebanon fertilizer 21-0-12 (granular, commercially available from Lebanon Seaboard Corporation, Lebanon, Pa.) and Milorganite 6-2-0 (granular, commercially available from Milorganite, Milwaukee, Wis.). The fertilizer compositions were applied to turf prior to winter dormancy at a rate equivalent to supplying about 1.0 pounds of nitrogen (N) per 1000 square feet. Each of the fertilizer compositions were applied at substantially equal rates of lbs of nitrogen (N) per 1000 square feet. Table 3 illustrates the response of fairway height, creeping bentgrass to fertilization using various exemplary fertilizers of the present invention, taken about two weeks after application of the fertilizer. The letters in the Color and Injury columns correspond to Duncan's Multiple Range Test. Numbers (means) in a column followed by the same letter are not statistically different at P=0.05.

[6] = test system: fairway height, creeping bentgrass; assay: Color rating of fairway height creeping bentgrass after fertilization (Example 6); settings: about two weeks after application
Method: as §3

[7] = 3-split, 2.0 lb N/1000 ft^2, Day 7
[8] = 3-split, 2.0 lb N/1000 ft^2, Day 14
[9] = 3-split, 2.0 lb N/1000 ft^2, Day 21
[10] = 3-split, 2.0 lb N/1000 ft^2, Day 28
[11] = 3-split, 2.0 lb N/1000 ft^2, Day 35
[12] = 6-split, 1.0 lb N/1000 ft^2, Day 7
[13] = 6-split, 1.0 lb N/1000 ft^2, Day 14
[14] = 6-split, 1.0 lb N/1000 ft^2, Day 21
[15] = 6-split, 1.0 lb N/1000 ft^2, Day 28
[16] = 6-split, 1.0 lb N/1000 ft^2, Day 35
[17] = 1.09 Lbs. product/1000 square feet
[18] = 2.17 Lbs. product/1000 square feet
[19] = 6.51 Lbs. product/1000 square feet

Cl.NCCCC[C@H](N)C(=O)O [Lys (HCl) 15% N, L-lysine monohydrochloride]
Phytotoxicity (% Burn) - Tall fescue grass [1, 7]: 15.0b % | Phytotoxicity (% Burn) - Tall fescue grass [1, 8]: 6.7b % | Phytotoxicity (% Burn) - Tall fescue grass [1, 9]: 1.7b % | Phytotoxicity (% Burn) - Tall fescue grass [1, 10]: 0.0a % | Phytotoxicity (% Burn) - Tall fescue grass [1, 11]: 0.0a % | Phytotoxicity (% Burn) - Tall fescue grass [1, 12]: 10.0c % | Phytotoxicity (% Burn) - Tall fescue grass [1, 13]: 1.7bc % | Phytotoxicity (% Burn) - Tall fescue grass [1, 14]: 0.0b % | Phytotoxicity (% Burn) - Tall fescue grass [1, 15]: 0.0a % | Phytotoxicity (% Burn) - Tall fescue grass [1, 16]: 0.0a % | Color Ratings - Tall fescue grass [2, 7]: 5.0 days | Quality Ratings - Tall fescue grass [2, 7]: 5.7c | Color Ratings - Tall fescue grass [2, 8]: 6.0b | Quality Ratings - Tall fescue grass [2, 8]: 7.0b | Color Ratings - Tall fescue grass [2, 9]: 7.0bc | Quality Ratings - Tall fescue grass [2, 9]: 7.0b | Color Ratings - Tall fescue grass [2, 10]: 8.0a | Quality Ratings - Tall fescue grass [2, 10]: 8.0a | Color Ratings - Tall fescue grass [2, 11]: 8.0a | Quality Ratings - Tall fescue grass [2, 11]: 8.0a | Color Ratings - Tall fescue grass [2, 12]: 6.0c | Quality Ratings - Tall fescue grass [2, 12]: 6.0c | Color Ratings - Tall fescue grass [2, 13]: 7.0a | Quality Ratings - Tall fescue grass [2, 13]: 7.0b | Color Ratings - Tall fescue grass [2, 14]: 7.0bc | Quality Ratings - Tall fescue grass [2, 14]: 7.7a | Color Ratings - Tall fescue grass [2, 15]: 8.0a | Quality Ratings - Tall fescue grass [2, 15]: 8.0a | Color Ratings - Tall fescue grass [2, 16]: 8.0a | Quality Ratings - Tall fescue grass [2, 16]: 8.0a

NC(N)=O [Urea, urea, reference compound]
Injury 1-9 (9 = no injury) [3, 17]: 8.3 | Injury 1-9 (9 = no injury) [3, 18]: 8.7 | Injury 1-9 (9 = no injury) [3, 19]: 8.7 | Injury 1-9 (9 = no injury) [4, 17]: 8.0^a,b,c | Injury 1-9 (9 = no injury) [4, 18]: 8.7^a | Injury 1-9 (9 = no injury) [4, 19]: 8.3^a,b | Injury 1-9 (9 = no injury) [5, 17]: 8.7^a,b | Injury 1-9 (9 = no injury) [5, 18]: 7.7^a,b | Injury 1-9 (9 = no injury) [5, 19]: 8.7^a,b | Color 1-9 (9 = dark green) [6, 17]: 6.7 | Color 1-9 (9 = dark green) [6, 18]: 7.0 | Color 1-9 (9 = dark green) [6, 19]: 7.7
